Each block holds one molecule with its values, some of them ahead of it. Calls of active or inactive are those of the source.
Legend:
[1] = target: T1, Zinc finger protein mex-5 (Caenorhabditis elegans, UniProt Q9XUB2); test: potency of MEX-5 RNA-binding blockers – biochemical, C. elegans, fluorescence polarization, dose response (AID 1960)
T1 sequence (Q9XUB2 whole entry): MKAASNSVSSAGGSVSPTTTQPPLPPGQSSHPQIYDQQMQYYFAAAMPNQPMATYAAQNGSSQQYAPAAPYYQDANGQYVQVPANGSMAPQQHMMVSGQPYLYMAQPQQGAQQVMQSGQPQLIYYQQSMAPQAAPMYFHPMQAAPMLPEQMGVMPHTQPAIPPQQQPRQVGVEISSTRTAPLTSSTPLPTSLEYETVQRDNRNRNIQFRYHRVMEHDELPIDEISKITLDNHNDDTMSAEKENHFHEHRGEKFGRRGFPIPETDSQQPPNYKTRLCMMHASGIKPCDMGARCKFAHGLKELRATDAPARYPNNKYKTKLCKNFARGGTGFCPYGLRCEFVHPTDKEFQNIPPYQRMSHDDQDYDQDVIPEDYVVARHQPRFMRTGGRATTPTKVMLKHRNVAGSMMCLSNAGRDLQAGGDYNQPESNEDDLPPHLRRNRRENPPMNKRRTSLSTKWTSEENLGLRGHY

[2] = target: Induced myeloid leukemia cell differentiation protein Mcl-1 (Homo sapiens, UniProt Q07820); assay type: functional
Sequence of Induced myeloid leukemia cell differentiation protein Mcl-1 (Q07820 whole entry): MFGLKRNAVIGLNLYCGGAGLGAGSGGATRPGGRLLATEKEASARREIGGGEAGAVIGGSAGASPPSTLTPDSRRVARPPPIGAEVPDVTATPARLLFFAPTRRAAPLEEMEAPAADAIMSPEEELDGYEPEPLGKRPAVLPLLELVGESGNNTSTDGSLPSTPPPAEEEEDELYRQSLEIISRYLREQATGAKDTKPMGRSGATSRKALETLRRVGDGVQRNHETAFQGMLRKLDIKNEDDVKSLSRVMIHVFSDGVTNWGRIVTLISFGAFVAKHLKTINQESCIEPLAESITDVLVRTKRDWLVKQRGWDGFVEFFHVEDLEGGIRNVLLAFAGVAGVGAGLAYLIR

SUMO-activating enzyme [3] = target: T2, SUMO-activating enzyme (Homo sapiens, UniProt Q9UBT2); test: blockers of SAE1/SAE2–UBC9 SUMO transfer – biochemical, HTRF, uHTS, primary screen (AID 2006); assay type: protein-complex assay
T2 sequence (Q9UBE0 whole entry, the tested form may be a part): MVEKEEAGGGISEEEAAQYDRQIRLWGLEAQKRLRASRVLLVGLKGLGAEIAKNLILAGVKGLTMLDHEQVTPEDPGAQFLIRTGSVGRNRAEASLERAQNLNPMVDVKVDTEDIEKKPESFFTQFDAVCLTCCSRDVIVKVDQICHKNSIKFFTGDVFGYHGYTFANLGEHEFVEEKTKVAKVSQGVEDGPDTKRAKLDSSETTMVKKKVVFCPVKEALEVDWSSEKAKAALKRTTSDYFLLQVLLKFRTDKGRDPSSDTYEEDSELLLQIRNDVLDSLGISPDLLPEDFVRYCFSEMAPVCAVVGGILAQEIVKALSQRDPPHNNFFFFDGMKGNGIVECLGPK
T2 sequence (Q9UBT2 whole entry, the tested form may be a part): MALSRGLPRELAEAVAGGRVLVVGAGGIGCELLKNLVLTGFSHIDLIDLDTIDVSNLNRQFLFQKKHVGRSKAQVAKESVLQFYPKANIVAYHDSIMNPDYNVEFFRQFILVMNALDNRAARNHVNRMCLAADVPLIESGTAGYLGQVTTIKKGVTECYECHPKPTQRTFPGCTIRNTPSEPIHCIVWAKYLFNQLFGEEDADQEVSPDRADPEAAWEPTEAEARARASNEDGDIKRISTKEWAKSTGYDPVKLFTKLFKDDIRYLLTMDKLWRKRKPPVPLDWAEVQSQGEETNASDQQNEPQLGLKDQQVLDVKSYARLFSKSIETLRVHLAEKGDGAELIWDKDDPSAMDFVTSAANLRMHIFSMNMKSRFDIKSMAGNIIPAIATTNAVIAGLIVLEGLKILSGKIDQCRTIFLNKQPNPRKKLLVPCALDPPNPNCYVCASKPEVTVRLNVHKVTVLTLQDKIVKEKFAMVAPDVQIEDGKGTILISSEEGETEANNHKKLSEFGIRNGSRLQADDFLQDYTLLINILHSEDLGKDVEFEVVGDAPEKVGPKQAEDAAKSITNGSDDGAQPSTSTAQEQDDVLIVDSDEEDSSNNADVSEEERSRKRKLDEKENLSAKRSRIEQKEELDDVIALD

[4] = target: T3, RNA-binding protein pos-1 (Caenorhabditis elegans, UniProt G5EF15); test: disruptors of C. elegans POS-1 RNA interaction – biochemical, fluorescence polarization, dose response (AID 1964);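 further: purified POS-1 fused to maltose binding protein made in E. coli; potency of compounds blocking POS-1 binding to fluorescent RNA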
T3 sequence (G5EF15 whole entry): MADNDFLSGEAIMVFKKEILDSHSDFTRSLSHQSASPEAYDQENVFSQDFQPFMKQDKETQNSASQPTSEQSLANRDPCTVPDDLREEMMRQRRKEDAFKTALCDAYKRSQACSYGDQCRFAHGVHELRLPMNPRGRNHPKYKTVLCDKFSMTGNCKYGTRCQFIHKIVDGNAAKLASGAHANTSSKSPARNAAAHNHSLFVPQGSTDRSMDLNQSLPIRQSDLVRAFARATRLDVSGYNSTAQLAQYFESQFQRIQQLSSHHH

SUMO-activating enzyme [5] = target: T2, SUMO-activating enzyme; test: blockers of UBC9-mediated SUMO conjugation – biochemical, AlphaScreen, SUMOylation inhibitor project, confirmation (AID 2018); assay type: functional
[6] = target: T4, Heat shock factor protein 1 (Mus musculus, UniProt P38532); test: enhancement of HSF1-driven luciferase signal – cell-based, NIH3T3, luminescence, dose retest, confirmation (AID 435004); assay type: functional;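 further: stress induced by proteasome inhibitor MG132 added 30 min after compound; luciferase reporter driven by HSF1 response element in NIH3T3 cells; actives raise luminescence as potentiators of the MG132 stress response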
T4 sequence (P38532 whole entry): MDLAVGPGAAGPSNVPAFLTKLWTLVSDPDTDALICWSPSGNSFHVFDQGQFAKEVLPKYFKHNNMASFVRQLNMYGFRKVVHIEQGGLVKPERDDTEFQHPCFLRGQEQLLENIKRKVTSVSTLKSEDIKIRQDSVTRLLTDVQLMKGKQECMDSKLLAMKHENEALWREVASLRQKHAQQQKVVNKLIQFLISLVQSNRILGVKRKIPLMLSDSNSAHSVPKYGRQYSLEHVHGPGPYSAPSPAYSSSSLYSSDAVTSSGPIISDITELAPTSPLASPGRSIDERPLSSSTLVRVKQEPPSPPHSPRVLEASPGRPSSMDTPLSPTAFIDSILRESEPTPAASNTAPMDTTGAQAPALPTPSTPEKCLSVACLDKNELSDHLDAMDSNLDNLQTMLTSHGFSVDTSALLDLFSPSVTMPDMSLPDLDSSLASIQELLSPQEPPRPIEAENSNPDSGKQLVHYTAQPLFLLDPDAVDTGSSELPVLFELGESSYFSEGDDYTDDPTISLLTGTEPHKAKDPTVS

[7] = target: T5, Ubiquitin-conjugating enzyme E2 N (Homo sapiens, UniProt P61088); assay type: functional
T5 sequence (P61088 whole entry): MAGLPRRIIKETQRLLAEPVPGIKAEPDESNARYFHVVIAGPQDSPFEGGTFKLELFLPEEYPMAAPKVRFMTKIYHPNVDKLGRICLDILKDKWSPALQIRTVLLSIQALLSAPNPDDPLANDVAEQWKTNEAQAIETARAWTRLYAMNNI

[8] = target: T5, Ubiquitin-conjugating enzyme E2 N; assay type: functional; remark: listed apart in the source
Bcl-2-related protein A1 = target: T6, Bcl-2-related protein A1 (Mus musculus, UniProt Q07440); assay type: functional;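 further: confirmatory dose–response counterscreen on Bfl-1, used to check hits from a UBC13 polyubiquitin inhibitor campaign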
T6 sequence (Q07440 whole entry): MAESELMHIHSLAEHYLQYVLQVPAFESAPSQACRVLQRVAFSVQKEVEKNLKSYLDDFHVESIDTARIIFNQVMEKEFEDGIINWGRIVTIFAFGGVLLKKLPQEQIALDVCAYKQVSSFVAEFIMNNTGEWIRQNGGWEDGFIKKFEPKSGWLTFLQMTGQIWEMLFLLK

Cytochrome P450 3A4 = Cytochrome P450 3A4 (Homo sapiens, UniProt P08684);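 further: CYP3A4 tested as one member of a cytochrome P450 panel screen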
Sequence of Cytochrome P450 3A4 (P08684 whole entry): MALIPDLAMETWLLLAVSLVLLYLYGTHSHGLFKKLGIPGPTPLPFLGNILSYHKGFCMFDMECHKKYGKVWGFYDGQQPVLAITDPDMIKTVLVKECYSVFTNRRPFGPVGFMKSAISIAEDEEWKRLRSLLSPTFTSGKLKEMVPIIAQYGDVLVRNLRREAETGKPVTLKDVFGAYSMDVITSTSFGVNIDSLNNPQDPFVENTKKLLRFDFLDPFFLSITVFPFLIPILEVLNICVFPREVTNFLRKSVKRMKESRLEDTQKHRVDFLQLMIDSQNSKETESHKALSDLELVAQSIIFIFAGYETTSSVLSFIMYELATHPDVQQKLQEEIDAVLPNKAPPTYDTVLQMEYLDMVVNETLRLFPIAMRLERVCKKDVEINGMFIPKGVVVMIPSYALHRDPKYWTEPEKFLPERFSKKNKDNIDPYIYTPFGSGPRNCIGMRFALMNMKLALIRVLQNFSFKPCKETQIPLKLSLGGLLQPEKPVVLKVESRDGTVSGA

Cytochrome P450 2D6 = Cytochrome P450 2D6 (Homo sapiens, UniProt P10635);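 further: CYP2D6 member of a cytochrome P450 panel assay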
Sequence of Cytochrome P450 2D6 (P10635 whole entry): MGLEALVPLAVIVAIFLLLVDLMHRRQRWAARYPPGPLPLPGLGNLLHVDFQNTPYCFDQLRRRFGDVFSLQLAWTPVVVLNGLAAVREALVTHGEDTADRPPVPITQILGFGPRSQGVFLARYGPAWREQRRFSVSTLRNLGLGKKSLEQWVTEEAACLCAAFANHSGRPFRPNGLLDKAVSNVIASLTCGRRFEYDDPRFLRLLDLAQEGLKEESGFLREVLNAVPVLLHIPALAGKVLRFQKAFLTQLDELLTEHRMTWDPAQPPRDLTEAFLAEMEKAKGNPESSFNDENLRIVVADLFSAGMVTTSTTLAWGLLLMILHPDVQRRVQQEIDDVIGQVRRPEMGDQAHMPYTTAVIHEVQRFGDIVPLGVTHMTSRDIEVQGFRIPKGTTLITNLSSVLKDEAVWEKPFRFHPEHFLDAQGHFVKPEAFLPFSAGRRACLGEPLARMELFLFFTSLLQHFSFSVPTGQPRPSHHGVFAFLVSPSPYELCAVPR

[9] = target: T7, Short transient receptor potential channel 4 (Mus musculus, UniProt Q9QUQ5); test: block of DAMGO-driven TRPC4 calcium entry – cell-based, HEK293 TRPC4/mu-opioid, Fluo-4 calcium, dose response (AID 434942); assay type: functional;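 further: potency of inhibitors blocking the TRPC4 calcium response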
T7 sequence (Q9QUQ5 whole entry): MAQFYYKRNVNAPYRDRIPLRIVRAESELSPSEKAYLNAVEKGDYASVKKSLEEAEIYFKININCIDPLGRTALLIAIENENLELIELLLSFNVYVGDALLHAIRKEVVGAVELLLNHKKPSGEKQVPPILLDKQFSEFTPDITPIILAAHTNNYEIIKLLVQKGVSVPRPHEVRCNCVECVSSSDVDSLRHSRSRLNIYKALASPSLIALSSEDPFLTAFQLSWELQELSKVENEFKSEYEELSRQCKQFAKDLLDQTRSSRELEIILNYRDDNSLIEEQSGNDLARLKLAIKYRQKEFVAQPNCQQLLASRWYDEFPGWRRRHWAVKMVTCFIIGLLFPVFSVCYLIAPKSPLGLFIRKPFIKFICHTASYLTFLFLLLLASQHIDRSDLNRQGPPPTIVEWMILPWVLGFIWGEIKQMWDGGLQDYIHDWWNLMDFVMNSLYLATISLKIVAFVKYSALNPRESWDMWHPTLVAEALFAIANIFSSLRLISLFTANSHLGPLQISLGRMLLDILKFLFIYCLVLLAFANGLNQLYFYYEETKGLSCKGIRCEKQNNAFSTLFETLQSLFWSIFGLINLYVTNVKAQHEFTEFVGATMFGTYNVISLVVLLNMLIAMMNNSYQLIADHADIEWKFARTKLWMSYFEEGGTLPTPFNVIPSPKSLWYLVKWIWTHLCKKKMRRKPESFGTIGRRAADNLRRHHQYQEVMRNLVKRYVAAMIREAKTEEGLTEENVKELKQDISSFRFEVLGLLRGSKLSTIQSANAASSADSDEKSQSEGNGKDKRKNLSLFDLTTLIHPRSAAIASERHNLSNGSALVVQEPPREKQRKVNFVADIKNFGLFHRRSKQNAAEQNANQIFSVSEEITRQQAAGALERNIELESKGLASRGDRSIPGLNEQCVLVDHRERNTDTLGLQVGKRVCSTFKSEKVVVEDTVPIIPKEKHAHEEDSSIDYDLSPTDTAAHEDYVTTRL

[10] = target: T8, Calpain-2 catalytic subunit (Sus scrofa, UniProt P43367); test: m-calpain protease blockers, concentration series – biochemical, fluorogenic peptide substrate, dose response (AID 1420); assay type: functional
T8 sequence (P43367 whole entry): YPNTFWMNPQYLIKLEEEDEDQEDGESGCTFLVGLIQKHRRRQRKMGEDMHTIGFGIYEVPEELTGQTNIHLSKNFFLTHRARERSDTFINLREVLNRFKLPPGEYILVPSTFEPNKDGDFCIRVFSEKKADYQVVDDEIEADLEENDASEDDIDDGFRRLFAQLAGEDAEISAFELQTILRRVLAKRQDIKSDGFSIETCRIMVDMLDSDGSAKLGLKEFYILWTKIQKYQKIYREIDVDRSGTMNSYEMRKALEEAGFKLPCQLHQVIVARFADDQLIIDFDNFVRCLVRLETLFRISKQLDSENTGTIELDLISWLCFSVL

[11] = target: T9, Type-1 angiotensin II receptor (Homo sapiens, UniProt P30556); test: antagonism of angiotensin II type 1 receptor – cell-based, uHTS hits, selectivity assay for APJ receptor antagonist project, dose response (AID 463214); assay type: functional;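 further: antagonist potency against angiotensin II stimulated AT1 response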
T9 sequence (P30556 whole entry): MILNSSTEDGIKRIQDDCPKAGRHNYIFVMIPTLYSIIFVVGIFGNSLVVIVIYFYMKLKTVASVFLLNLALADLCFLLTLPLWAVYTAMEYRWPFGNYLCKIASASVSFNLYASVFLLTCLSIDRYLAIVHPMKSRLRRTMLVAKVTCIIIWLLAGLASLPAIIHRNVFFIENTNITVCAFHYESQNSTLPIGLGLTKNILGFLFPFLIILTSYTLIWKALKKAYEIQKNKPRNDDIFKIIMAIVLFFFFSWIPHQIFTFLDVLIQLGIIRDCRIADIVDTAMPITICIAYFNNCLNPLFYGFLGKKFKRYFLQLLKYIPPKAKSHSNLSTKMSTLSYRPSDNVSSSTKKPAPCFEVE

Beta-galactosidase = Beta-galactosidase (Escherichia coli, UniProt Q8VNN2); test: PubChem AID 485352; assay type: functional
Sequence of Beta-galactosidase (Q8VNN2 whole entry): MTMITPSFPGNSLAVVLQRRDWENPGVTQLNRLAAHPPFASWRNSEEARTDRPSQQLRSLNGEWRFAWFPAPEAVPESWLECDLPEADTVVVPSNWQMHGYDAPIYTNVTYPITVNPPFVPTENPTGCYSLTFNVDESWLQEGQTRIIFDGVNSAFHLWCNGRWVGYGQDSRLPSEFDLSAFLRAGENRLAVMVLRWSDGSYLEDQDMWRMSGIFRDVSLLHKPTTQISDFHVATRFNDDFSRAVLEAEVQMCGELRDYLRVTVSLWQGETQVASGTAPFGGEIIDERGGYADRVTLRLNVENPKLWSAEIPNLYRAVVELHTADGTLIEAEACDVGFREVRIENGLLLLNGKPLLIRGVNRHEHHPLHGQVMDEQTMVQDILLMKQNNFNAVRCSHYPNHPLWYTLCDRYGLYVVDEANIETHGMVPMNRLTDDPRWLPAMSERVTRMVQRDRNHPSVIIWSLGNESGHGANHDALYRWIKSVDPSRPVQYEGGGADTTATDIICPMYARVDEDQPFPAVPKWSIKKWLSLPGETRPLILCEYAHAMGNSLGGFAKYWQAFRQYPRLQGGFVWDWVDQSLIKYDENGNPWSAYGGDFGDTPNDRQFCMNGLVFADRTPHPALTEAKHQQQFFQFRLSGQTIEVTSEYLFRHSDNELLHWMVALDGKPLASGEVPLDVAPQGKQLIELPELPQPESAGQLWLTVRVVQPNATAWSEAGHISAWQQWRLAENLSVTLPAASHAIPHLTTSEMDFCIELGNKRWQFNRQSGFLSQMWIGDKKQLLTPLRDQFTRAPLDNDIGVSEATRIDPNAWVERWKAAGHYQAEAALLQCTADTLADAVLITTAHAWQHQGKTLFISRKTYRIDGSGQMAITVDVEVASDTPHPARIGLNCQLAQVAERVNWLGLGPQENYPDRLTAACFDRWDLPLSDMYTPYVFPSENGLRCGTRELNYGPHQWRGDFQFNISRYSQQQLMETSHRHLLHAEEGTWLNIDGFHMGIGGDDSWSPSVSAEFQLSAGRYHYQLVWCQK

HEK293 = test: HEK293T cell viability loss, resazurin readout – resazurin fluorescence, cytotoxicity control for NF-kB activator project, SAR follow-up (AID 493251); assay type: functional, cell-based; conditions: Homo sapiens

EC50 [1]: > 300 µM (not active)
IC50 [2]: 1.59 µM (active)
IC50 (SUMO-activating enzyme [3]): 25.7 µM (active)
EC50 [4]: > 300 µM (inconclusive)
IC50 (SUMO-activating enzyme [5]): 6.48 µM (active)
Structure (SMILES): CC1=C(C#N)C(=O)NC(=O)/C1=C/c1ccc(-c2ccc(S(N)(=O)=O)cc2)o1

EC50 [6]: > 260 µM (inactive)
IC50 [7]: 18.8 µM (active)
IC50 [8]: 15.6 µM (active)
IC50 (Bcl-2-related protein A1): > 20 µM (inactive)
Structure (SMILES): O=C(CSc1cc(Cl)ccc1Cl)NCC(=O)Nc1ccc(F)c(F)c1F

AC50 (Cytochrome P450 3A4): 15.8 µM (inconclusive)
AC50 (Cytochrome P450 2D6): 501 nM (inconclusive)
EC50 [9]: 2.11 µM (active)
Structure (SMILES): CC(C)(C)c1cc2cccnc2n1Cc1ccccc1

IC50 [10]: 11.5 µM (not active)
EC50 [9]: 2.11 µM (active)
Structure (SMILES): COc1cccc(O)c1CN1CCCC(C(=O)c2cccc(C(F)(F)F)c2)C1 (stereo not given)

IC50 [7]: > 20 µM (inactive)
IC50 [8]: 19.3 µM (active)
IC50 (Bcl-2-related protein A1): > 20 µM (inactive)
Structure (SMILES): CNC(=O)c1ccsc1NC(=O)C1CCCN1S(=O)(=O)c1cccs1 (stereo not given)

IC50 [11]: 26 µM (not active)
EC50 (Beta-galactosidase): > 40 µM (inactive)
Structure (SMILES): CC(=O)Nc1ccc(NC(=O)CCC(=O)OCC(=O)c2cccc([N+](=O)[O-])c2)cc1

IC50 [11]: > 40 µM (not active)
EC50 (Beta-galactosidase): > 40 µM (inactive)
Structure (SMILES): O=C(Nc1nnc(SCc2ccc(F)cc2)s1)c1cnccn1

Structure (SMILES): CC(C)(C)c1ccc(-c2noc(CCC(=O)O)n2)cc1
IC50 (HEK293): > 80 µM (inactive)

IC50 [7]: 8.75 µM (active)
IC50 [8]: 19.5 µM (active)
IC50 (Bcl-2-related protein A1): > 20 µM (inactive)
Structure (SMILES): CCOC(=O)c1c(C)c2c(n1C)CCC/C2=N\O

From ChEMBL document CHEMBL1201862, “PubChem BioAssay data set” (2004)
